Calls of active or inactive are those of the source. The calls are words filed in the database; no cut-off is given here.
Assays:
[1] = target: T1, Oxytocin receptor (Homo sapiens, UniProt P30559); assay: Displacement of [3H]OT from human OT receptor expressed in HEK cells; format: cell-based, HEK293
T1 sequence (P30559 whole entry): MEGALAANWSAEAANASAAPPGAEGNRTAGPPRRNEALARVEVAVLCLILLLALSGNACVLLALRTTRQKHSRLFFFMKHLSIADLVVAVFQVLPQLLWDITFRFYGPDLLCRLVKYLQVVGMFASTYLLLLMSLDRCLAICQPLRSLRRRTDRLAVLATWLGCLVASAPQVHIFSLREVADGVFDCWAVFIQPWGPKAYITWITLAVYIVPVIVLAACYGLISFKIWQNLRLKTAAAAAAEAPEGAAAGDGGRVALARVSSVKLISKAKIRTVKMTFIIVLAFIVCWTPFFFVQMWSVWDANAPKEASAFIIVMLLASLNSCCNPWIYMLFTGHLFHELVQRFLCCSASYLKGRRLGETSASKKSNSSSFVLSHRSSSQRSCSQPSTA

[2] = target: T2, Oxytocin receptor (Rattus norvegicus) (UniProt P70536); assay: Agonist activity in rat uterus by uterotonic assay; format: functional, tissue-based
T2 sequence (whole entry): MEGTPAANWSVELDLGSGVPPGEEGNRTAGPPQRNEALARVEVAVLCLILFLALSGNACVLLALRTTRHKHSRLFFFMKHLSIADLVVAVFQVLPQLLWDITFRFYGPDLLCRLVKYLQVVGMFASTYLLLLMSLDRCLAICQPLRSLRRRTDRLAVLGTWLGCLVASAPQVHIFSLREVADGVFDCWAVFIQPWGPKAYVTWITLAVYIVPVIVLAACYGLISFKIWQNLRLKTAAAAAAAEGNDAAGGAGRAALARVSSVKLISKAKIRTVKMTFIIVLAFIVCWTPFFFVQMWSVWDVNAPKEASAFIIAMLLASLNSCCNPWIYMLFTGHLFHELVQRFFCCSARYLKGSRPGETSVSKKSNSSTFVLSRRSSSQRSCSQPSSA

[3] = target: Vasopressin V1a receptor (Rattus norvegicus) (UniProt P30560); assay: Agonist activity in phenoxybenzamine-treated rat up to 0.16 mg/kg by Pressor assay
[4] = target: T3, Oxytocin receptor (Rattus norvegicus, UniProt P70536); assay: Antagonist activity in rat uterus by uterotonic assay; format: functional, tissue-based; details: read-out: pA2 (converted)
T3 sequence (P70536 whole entry): T2 sequence (whole entry)

[5] = target: Vasopressin V1a receptor (Rattus norvegicus) (UniProt P30560); assay: Antagonist activity in phenoxybenzamine-treated rat by Pressor assay; details: read-out: pA2 (converted)

Chain of Vasopressin V1a receptor (Rattus norvegicus) (P30560 whole entry, looked up): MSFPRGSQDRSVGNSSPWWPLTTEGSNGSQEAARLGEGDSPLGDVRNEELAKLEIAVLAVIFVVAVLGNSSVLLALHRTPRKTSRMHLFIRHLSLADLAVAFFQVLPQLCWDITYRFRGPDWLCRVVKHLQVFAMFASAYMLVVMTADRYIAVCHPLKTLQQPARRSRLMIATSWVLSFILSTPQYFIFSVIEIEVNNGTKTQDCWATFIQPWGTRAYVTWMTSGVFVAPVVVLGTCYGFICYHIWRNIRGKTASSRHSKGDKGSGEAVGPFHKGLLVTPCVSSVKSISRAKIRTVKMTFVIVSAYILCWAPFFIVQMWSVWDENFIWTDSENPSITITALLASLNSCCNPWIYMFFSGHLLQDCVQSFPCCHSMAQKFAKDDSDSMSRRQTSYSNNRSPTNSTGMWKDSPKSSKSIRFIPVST

| Structure (SMILES) | IC50 [1] [nM] | Activity [2] [IU/mg] | Activity [3] | Kb [4] [nM] | Kb [5] [nM] |
| --- | --- | --- | --- | --- | --- |
| CC[C@H](C)[C@@H]1NC(=O)[C@H]2Cc3ccccc3CN2C(=O)CCSSC[C@@H](C(=O)NC(C)(C)C(=O)N[C@@H](CC(C)C)C(=O)NCC(N)=O)NC(=O)[C@H](CC(N)=O)NC(=O)[C@H](CCC(N)=O)NC1=O | 8500 | 0 | inactive | 123 |  |
| CCc1ccc(C[C@H]2NC(=O)CCSSC[C@@H](C(=O)NC(C)(C)C(=O)N[C@@H](CC(C)C)C(=O)NCC(N)=O)NC(=O)[C@H](CC(N)=O)NC(=O)[C@H](CCC(N)=O)NC(=O)[C@H]([C@@H](C)CC)NC2=O)cc1 |  | 0 | inactive | 5.01 | 316 |
| CCc1ccc(C[C@H]2NC(=O)CCSSC[C@@H](C(=O)N3CCC[C@H]3C(=O)N[C@@H](CC(C)C)C(=O)NCC(N)=O)NC(=O)[C@H](CC(N)=O)NC(=O)[C@H](CCC(N)=O)NC(=O)[C@H]([C@@H](C)CC)NC2=O)cc1 |  |  |  |  | 151 |
| CCOc1ccc(CC2NC(=O)CCSSC[C@@H](C(=O)NC(C)(C)C(=O)N[C@@H](CC(C)C)C(=O)NCC(N)=O)NC(=O)[C@H](CC(N)=O)NC(=O)[C@H](CCC(N)=O)NC(=O)[C@H]([C@@H](C)CC)NC2=O)cc1 (stereo in doubt) | 485 | 0 | inactive | 17.8 |  |
| CCOc1ccc(CC2NC(=O)CCSSC[C@@H](C(=O)N[C@H](C(=O)N[C@@H](CC(C)C)C(=O)NCC(N)=O)C(C)(C)C)NC(=O)[C@H](CC(N)=O)NC(=O)[C@H](CCC(N)=O)NC(=O)[C@H]([C@@H](C)CC)NC2=O)cc1 (stereo in doubt) | 1000 | 0 | inactive | 11.7 |  |
| CCOc1ccc(CC2NC(=O)CCSSC[C@@H](C(=O)N[C@H](C(=O)N[C@@H](CC(C)C)C(=O)NCC(N)=O)C(C)(C)C)NC(=O)[C@H](CC(N)=O)NC(=O)[C@H](CCC(N)=O)NC(=O)[C@H](C(C)(C)C)NC2=O)cc1 (stereo in doubt) | 7850 | 0 | inactive | 355 |  |
| CC[C@H](C)[C@@H]1NC(=O)[C@H](Cc2ccc(O)cc2)NC(=O)CCSSC[C@@H](C(=O)N2Cc3ccccc3C[C@@H]2C(=O)N[C@@H](CC(C)C)C(=O)NCC(N)=O)NC(=O)[C@H](CC(N)=O)NC(=O)[C@H](CCC(N)=O)NC1=O | 380 | 1 | inactive | 10 |  |
| CC[C@H](C)[C@@H]1NC(=O)[C@H](Cc2ccc(O)cc2)NC(=O)[C@@H](N)CSSC[C@@H](C(=O)N2Cc3ccccc3C[C@@H]2C(=O)N[C@@H](CC(C)C)C(=O)NCC(N)=O)NC(=O)[C@H](CC(N)=O)NC(=O)[C@H](CCC(N)=O)NC1=O | 730 | 0 | inactive | 100 | > 1000 |

Further compounds by falling IC50 [1], results first:

| IC50 [1] [nM] | Activity [2] [IU/mg] | Activity [3] | Kb [4] [nM] | Kb [5] [nM] | Structure (SMILES) |
| --- | --- | --- | --- | --- | --- |
| 176 | 0 | inactive | 15.8 | > 1000 | CCOc1ccc(CC2NC(=O)CCSSC[C@@H](C(=O)N3Cc4ccccc4C[C@H]3C(=O)N[C@@H](CC(C)C)C(=O)NCC(N)=O)NC(=O)[C@H](CC(N)=O)NC(=O)[C@H](CCC(N)=O)NC(=O)[C@H]([C@@H](C)CC)NC2=O)cc1 (stereo in doubt) |
| 130 | 2 | inactive | 2510 | > 1000 | CC[C@H](C)[C@@H]1NC(=O)[C@H](Cc2ccc(O)cc2)NC(=O)[C@@H](N)CSSC[C@@H](C(=O)N2Cc3ccccc3C[C@H]2C(=O)N[C@@H](CC(C)C)C(=O)NCC(N)=O)NC(=O)[C@H](CC(N)=O)NC(=O)[C@H](CCC(N)=O)NC1=O |
| 103 | 3.5 | inactive | 35.5 | > 1000 | CC[C@H](C)[C@@H]1NC(=O)[C@H](Cc2ccc(O)cc2)NC(=O)CCSSC[C@@H](C(=O)N2Cc3ccccc3C[C@H]2C(=O)N[C@@H](CC(C)C)C(=O)NCC(N)=O)NC(=O)[C@H](CC(N)=O)NC(=O)[C@H](CCC(N)=O)NC1=O |
| 80 | 0 | inactive | 4.9 |  | CCOc1ccc(CC2NC(=O)CCSSC[C@@H](C(=O)N3Cc4ccccc4C[C@@H]3C(=O)N[C@@H](CC(C)C)C(=O)NC(C)(C)C(N)=O)NC(=O)[C@H](CC(N)=O)NC(=O)[C@H](CCC(N)=O)NC(=O)[C@H]([C@@H](C)CC)NC2=O)cc1 (stereo in doubt) |
| 51 | 0 | inactive | 6.31 | > 1000 | CCOc1ccc(CC2NC(=O)CCSSC[C@@H](C(=O)N3Cc4ccccc4C[C@@H]3C(=O)N[C@@H](CC(C)C)C(=O)NCC(N)=O)NC(=O)[C@H](CC(N)=O)NC(=O)[C@H](CCC(N)=O)NC(=O)[C@H]([C@@H](C)CC)NC2=O)cc1 (stereo in doubt) |
| 40 | 0 | inactive | 12.6 |  | CCOc1ccc(CC2NC(=O)CCSSC[C@@H](C(=O)N3CCCC[C@H]3C(=O)N[C@@H](CC(C)C)C(=O)NCC(N)=O)NC(=O)[C@H](CC(N)=O)NC(=O)[C@H](CCC(N)=O)NC(=O)[C@H]([C@@H](C)CC)NC2=O)cc1 (stereo in doubt) |
| 25 | 0 | inactive | 8.51 |  | CCOc1ccc(CC2NC(=O)CCSSC[C@@H](C(=O)N3Cc4ccccc4C[C@@H]3C(=O)N[C@@H](CC(C)C)C(=O)N3Cc4ccccc4C[C@@H]3C(N)=O)NC(=O)[C@H](CC(N)=O)NC(=O)[C@H](CCC(N)=O)NC(=O)[C@H]([C@@H](C)CC)NC2=O)cc1 (stereo in doubt) |
